Values of other authors as cited in patent publication US20140275257A1, “N-ACETYL CYSTEINE COMPOSITIONS IN THE TREATMENT OF SYSTEMIC LUPUS ERYTHEMATOSUS” (Foundation for the State University of New York, priority 2013, published 2014).

Experiments:
[1] = effects counter to those reported for NAC; Samstrand et al (1999); cited from earlier work
[2] = tested on: MRL/lpr lupus mouse model; conditions: cited from earlier work
[3] = tested on: CD4+/CD25+/FoxP3+ T cells; conditions: Lai et al. (2010); cited from earlier work
human SLE patients = conditions: patients resistant or intolerant to conventional medications; Fernandez et al. (2006); cited from earlier work

CC(=O)N[C@@H](CSSC[C@H](NC(C)=O)C(=O)O)C(=O)O [oxidized form of NAC]
bioactive at doses less than NAC [1]: 10-100 fold

CO[C@H]1C[C@@H]2CC[C@@H](C)[C@@](O)(O2)C(=O)C(=O)N2CCCC[C@H]2C(=O)O[C@H]([C@H](C)C[C@@H]2CC[C@@H](O)[C@H](OC)C2)CC(=O)[C@H](C)/C=C(\C)[C@@H](O)[C@@H](OC)C(=O)[C@H](C)C[C@H](C)/C=C/C=C/C=C/1C [rapamycin]
survival of lupusprone MRL/lpr lupus mouse model ([2]; Warner et al. (1994)): prolonged survival
disease activity in murine lupus ([2]; blockade of mTOR): improves disease activity
CD4+/CD25+/FoxP3+ T cells in patients with SLE [3]: expanded
disease activity in human SLE patients (human SLE patients): improves disease activity
